Measured values taken from article PMC4585737, “Lipoproteins/peptides are sepsis-inducing toxins from bacteria that can be neutralized by synthetic anti-endotoxin peptides” (Scientific Reports, 2015).
Entries after “also recorded” stand apart in the source; their conditions may differ.

Assays:
[1] = test system: human MNCs; settings: even at [LPS]:[Aspidasept] weight ratios as low as 1:1; cited from earlier work
Excerpt: In this section, we first present in vitro data on the production of pro-inflammatory cytokines by human cells in response to LP or LTA from different origin and its neutralization by SALP. Then, we used a mouse model of acute toxemia to characterize the in vivo expression of those cytokines and to study if SALP can protect animals against lethal LP-induced sepsis.

[2] = test system: human mononuclear cells; experiment: TNFα production in human mononuclear cells (MNC) stimulated by LP, LTA or PGN, and its inhibition by SALP; assay type: cell-based
Description: The stimulation of MNC was performed as described previously. Briefly, MNC were isolated from heparinized blood of healthy donors by the Hypaque-Ficoll density gradient method. The cell number was equilibrated at 5 × 10^6 cells/ml RPMI 1640 containing 2 mM L-glutamine, 100 U/ml penicillin and 100 μg/ml streptomycin. For stimulation, 200 μl/well MNC were transferred into 96-well culture plates. The stimuli were serially diluted in RPMI 1640 and added to the cultures at 20 μl per well. The cultures were incubated for 4 h at 37 °C under 5% CO2. Cell-free supernatants were collected after centrifugation of the culture plates for 10 min at 400 × g and stored at −20 °C until the determination of the cytokine content. Immunological determination of TNFα in the cell supernatant was performed in a sandwich-ELISA as described earlier (OptEIA; BD, Heidelberg, Germany). TNFα was determined and measured following manufacturer’s instructions and results are the average of two assays.
LP preparations were pre-warmed for 30 min at 37 °C, and added to the cultures at 20 μl per well. In inhibition experiments, different SALP were added directly after LPS/LP/LTA administration.
Since the data of the stimulation of human MNC by the bacterial and synthetic LP was taken over a time period of more than 6 years, the TNFα production lead to considerable variations due to different batches of LP and of Pep19-2.5, and in particular due to variations resulting from blood samples of different donors. Because the main emphasis laid here is the efficiency of the peptide to inhibit the cytokine production, most figures describe the inhibition efficieny of the peptide in %, by presenting the means ± SEM of at least 3 independent experiments. The absolute values of the cytokine production, where of note, is given separately in the text.

[3] = test system: FSL-1; experiment: Isothermal titration calorimetry of peptide into FSL-1; assay type: binding; settings: LP 0.05 mM, peptide 1 mM titrated in 3 μl portions every 5 min, 37 °C
Description: Microcalorimetric measurements of peptide binding to selected LP, i.e., Pam3CSK4 and FSL-1 were performed on a MCS isothermal titration calorimeter (Microcal, Freiburg, Germany) at 37 °C, as previously described. The LP containing solutions (0.05 mM, prepared as described above) were dispensed into the microcalorimetric cell (volume 1.5 ml), and the peptide solutions (1 mM) were loaded into the syringe compartment (volume 0.1 ml). After temperature equilibration, the peptide was titrated in 3 μl aliquots every 5 min into the LP-containing cell under constant stirring and the heat of interaction after each injection measured by the MCS instrument was plotted versus time.

## GCKKYRRFRWKFKGKFWFWG [Aspidasept®, synthetic anti-LPS peptide (SALP), 20′mer, anti-septic therapeutic drug candidate]
[1]
  inhibition of LPS-induced cytokine expression in human MNCs: efficiently inhibits
[2]; 10:1 excess weight ratio of the peptide
  inhibition of TNFα induction by LP, LTA and PGN: takes place in most cases
[2]; 100:1 weight ratio of the peptide
  cytokine expression induced by LP, LTA and PGN in presence of peptide: no longer any detectable cytokine expression
[2]; stimulus FSL-1 100 and 10 ng/ml, 10-fold (10:1 weight%) excess of peptide
  reduction of FSL-1-induced TNFα secretion: considerable reduction; also recorded: good degree of inhibition
[2]; stimulus FSL-1, 100:1 excess of peptide
  reduction of FSL-1-induced TNFα secretion: nearly completely abolished
[2]; stimulus LP OspA and OspC, 10000 and 1000 ng/ml, peptide:LP ratio 10:1
  inhibition of LP dependent TNFα production: inhibited
[2]; stimulus LP OspA and OspC, peptide:LP 100:1 concentration ratio, data not shown
  LP dependent TNFα production in presence of peptide: undetectable levels
[2]; stimulus LTA from S. aureus SA113Δlgt, 10000 and 1000 ng/ml, 10-fold excess of peptide
  reduction of LTA-dependent TNFα response: effectively reduced
[2]; stimulus MALP-2, 100:1 weight% excess of the peptide, data not shown
  inhibition of pro-inflammatory activity of MALP-2: nearly complete inhibition
[2]; stimulus PGN from S. aureus SA113Δlgt, 10000 and 1000 ng/ml, 10-fold excess of peptide
  inhibition of PGN-induced TNFα response: totally inhibited
[2]; stimulus Pam3CSK4 1000, 100, 10 ng/ml, [LP]:[Pep] up to 1:100 weight%
  inhibition of Pam3CSK4-induced cytokine (TNFα) production: only a minor inhibitory effect; also recorded: no significant influence; also recorded: no or only a small inhibition
[2]; stimulus commercial LTA from B. subtilis, 10:1 weight% excess of peptide
  inhibition of LTA-induced TNFα: complete inhibition
[2]; stimulus commercial LTA from S. aureus, data not shown
  inhibition of LTA-induced cytokine: inhibited
[3]
  ITC: FSL-1:peptide interaction: exothermic reaction with saturation kinetics; also recorded: considerable reaction with saturation characteristics
